Read-outs that look alike come from different tables or passages of the source.
Experiments:
[1] = tested on: pENSA; assay: pENSA level by immunofluorescence (described method: in vitro kinase analysis with GST-tag-MASTL and His-tag-ENSA); assay type: cell-based; conditions: for pENSA (%) Immunofluor ecense (1 µM): compound 1 µM
In short: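 In vitro kinase reaction using recombinant GST-tagged MASTL with His-tagged ENSA as substrate; phosphorylated ENSA (pENSA) serves as read-out of MASTL activity. Cell lines named: MCF7 breast cancer and MCF10A.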

[2] = biological target: T1, Recombinant GST-TAG-MASTL (Homo sapiens, UniProt Q96GX5); assay: HTRF-based kinase assay (HTRF KinEASE assay kit); assay type: biochemical; conditions: for activity at 1 µM: read-out: MASTL activity (%) HTRF (1 µM); for IC50: HTRF, read-out: IC50(nM) MASTL activity
T1 construct: GST; purchased Thermo Fisher Scientific
T1 sequence (Q96GX5 1-879): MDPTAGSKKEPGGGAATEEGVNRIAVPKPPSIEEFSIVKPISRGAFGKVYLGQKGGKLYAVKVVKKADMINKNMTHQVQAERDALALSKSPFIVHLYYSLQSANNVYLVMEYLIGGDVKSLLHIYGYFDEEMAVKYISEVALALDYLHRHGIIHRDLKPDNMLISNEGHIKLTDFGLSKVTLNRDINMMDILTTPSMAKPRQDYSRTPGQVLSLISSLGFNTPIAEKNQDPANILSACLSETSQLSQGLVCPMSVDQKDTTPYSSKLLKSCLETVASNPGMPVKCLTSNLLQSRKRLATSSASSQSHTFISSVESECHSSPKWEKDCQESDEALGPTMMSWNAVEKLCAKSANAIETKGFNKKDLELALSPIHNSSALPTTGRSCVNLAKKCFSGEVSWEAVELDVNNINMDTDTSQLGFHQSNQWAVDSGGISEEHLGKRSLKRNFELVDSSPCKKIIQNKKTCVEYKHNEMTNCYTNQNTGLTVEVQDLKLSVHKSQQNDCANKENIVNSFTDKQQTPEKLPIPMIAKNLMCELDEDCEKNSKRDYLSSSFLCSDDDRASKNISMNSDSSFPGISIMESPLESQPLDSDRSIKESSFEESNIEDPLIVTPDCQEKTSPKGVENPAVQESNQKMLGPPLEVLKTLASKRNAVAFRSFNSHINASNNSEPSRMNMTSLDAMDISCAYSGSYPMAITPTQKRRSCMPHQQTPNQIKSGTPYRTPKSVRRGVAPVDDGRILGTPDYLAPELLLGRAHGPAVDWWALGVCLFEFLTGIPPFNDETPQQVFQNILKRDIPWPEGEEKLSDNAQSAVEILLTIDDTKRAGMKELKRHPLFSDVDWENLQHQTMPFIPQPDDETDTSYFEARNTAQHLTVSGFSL
Excerpt: Recombinant GST-TAG-MASTL (Thermo Fisher Scientific, MA, USA) was used for HTRF-based kinase assays. The HTRF KinEASE assay kit (CisBio, MA, USA) was used according to the manufacturer's instructions.

[3] = tested on: MCF7 breast cancer cell lines; assay: Cell viability analysis, WST-8 assay, MCF7; conditions: Homo sapiens, MCF7, 72 h; for viability at 1 µM: read-out: Cell viability (%) WST-8, MCF7 (1 µM), compound 1 µM, 72 hours
Method: (§1) MCF7 breast cancer cell lines and MCF10A normal breast cancer cell lines were treated with serial dilutions of the compounds of the present invention ranging from 1 µM to 15.63 nM for 72 hours. Cell viability was measured by the WST-8 assay (Cyto XTM cell viability assay kit; LPS solution, Daejeon, Korea) according to the manufacturer's instructions.

[4] = in vitro; conditions: human, mcf10a cells
Method: as §1

In the case of `CCc1ccccc1C1=CCN(c2nc(Nc3cc(C4CC4)[nH]n3)c3ccccc3n2)CC1` [compound 6m, M-(5-cyclopropyl-1G-pyrazol-3-yl)-2-(4-(2-ethylphenyl)-3,6-dihydropyridin-1(2G)-yl)quinazolin-4-amine], the “pENSA (%) Immunofluor ecense (1 µM)” value [1] is reported as 97.1%, the activity at 1 µM ([2]; compound 1 µM) is reported as 51.8% and the viability at 1 µM [3] is reported as 65.7%. For the same compound, the viability at 1 µM [4] was 115%.
In the case of `CC(C)(C)OC(=O)N1CC=C(c2nc(Nc3cc(C4CC4)[nH]n3)c3ccccc3n2)CC1` [compound 7, sdqs-butyl 4-(4-((5-cyclopropyl-1G-pyrazol-3-yl)amino)quinazolin-2-yl)-3,6-dihydropyridine-1(2G)-carboxylate], the “pENSA (%) Immunofluor ecense (1 µM)” value [1] is reported as 68.2%, the IC50 [2] is reported as 315 nM and the activity at 1 µM ([2]; compound 1 µM) is reported as 31%. The viability at 1 µM [3] was 84.2% and the viability at 1 µM [4] was 54.9%.
For `C1=C(c2nc(Nc3cc(C4CC4)[nH]n3)c3ccccc3n2)CCNC1` [compound 8, M-(5-cyclopropyl-1G-pyrazol-3-yl)-2-(1,2,3,6-tetrahydropyridin-4-yl)quinazolin-4-amine trifluoroacetic acid], the “pENSA (%) Immunofluor ecense (1 µM)” value [1] was 53%, the activity at 1 µM [2] was 57.2% and the viability at 1 µM [3] was 64.3%. It also gave a viability at 1 µM [4] of 80.8%.
In the case of `O=C(c1ccccc1)N1CC=C(c2nc(Nc3cc(C4CC4)[nH]n3)c3ccccc3n2)CC1` [compound 9a, (4-(4-((5-cyclopropyl-1G-pyrazol-3-yl)amino)quinazolin-2-yl)-3,6-dihydropyridin-1(2G)-yl)(phenyl)methanone], the “pENSA (%) Immunofluor ecense (1 µM)” value [1] is reported as 50.5%, the IC50 [2] is reported as 203 nM and the activity at 1 µM ([2]; compound 1 µM) is reported as 45.5%. For the same compound, the viability at 1 µM [3] was 63.8% and the viability at 1 µM [4] was 49.7%.
With `CC(C)(C)OC(=O)N1CCN(c2nc(Nc3cc(C4CC4)[nH]n3)c3ccccc3n2)CC1` [compound 10, sdqs-butyl 4-(4-((5-cyclopropyl-1G-pyrazol-3-yl)amino)quinazolin-2-yl)piperazine-1-carboxylate] the “pENSA (%) Immunofluor ecense (1 µM)” value [1] was 50.3%, the IC50 [2] was 569 nM and the activity at 1 µM ([2]; compound 1 µM) was 24.1%. For the same compound, the viability at 1 µM [3] was 61.4% and the viability at 1 µM [4] was 60.7%.
In the case of `O=C(Nc1ccccc1)N1CC2CC1CN2c1nc(Nc2cc(C3CC3)[nH]n2)c2ccccc2n1` (stereo not drawn) [compound 15c, 5-(4-((5-cyclopropyl-1G-pyrazol-3-yl)amino)quinazolin-2-yl)-M-phenyl-2,5-diazabicyclo[2.2.1]heptane-2-carboxamide], the “pENSA (%) Immunofluor ecense (1 µM)” value [1] is reported as 11.3%, the IC50 ([1]; read-out: IC50(nM) pENSA) is reported as 576 nM and the IC50 [2] is reported as 265 nM. For the same compound, the activity at 1 µM ([2]; compound 1 µM) was 41.2%, the viability at 1 µM [3] was 93% and the viability at 1 µM [4] was 40%.
With `CC(C)C(=O)N1CC2CC1CN2c1nc(Nc2cc(C3CC3)[nH]n2)c2ccccc2n1` (stereo not drawn) [compound 15d, 1-(5-(4-((5-cyclopropyl-1G-pyrazol-3-yl)amino)quinazolin-2-yl)-2,5-diazabicyclo[2.2.1]heptan-2-yl)-2-methylpropan-1-one] the “pENSA (%) Immunofluor ecense (1 µM)” value [1] was 68.6%, the activity at 1 µM ([2]; compound 1 µM) was 58.8% and the viability at 1 µM [3] was 51.5%. It also gave a viability at 1 µM [4] of 40.3%.
With `O=C(c1ccccc1)N1CC2CC1CN2c1nc(Nc2cc(C3CC3)[nH]n2)c2ccccc2n1` (stereo not drawn) [compound 15e, (5-(4-((5-cyclopropyl-1G-pyrazol-3-yl)amino)quinazolin-2-yl)-2,5-diazabicyclo[2.2.1]heptan-2-yl)(phenyl)methanone] the “pENSA (%) Immunofluor ecense (1 µM)” value [1] was 48.2%, the activity at 1 µM ([2]; compound 1 µM) was 80% and the viability at 1 µM [3] was 68.3%. The viability at 1 µM [4] was 31.3%.
For `CC(C)CN1CC2CC1CN2c1nc(Nc2cc(C3CC3)[nH]n2)c2ccccc2n1` (stereo not drawn) [compound 15f, M-(5-cyclopropyl-1G-pyrazol-3-yl)-2-(5-isobutyl-2,5-diazabicyclo[2.2.1]heptan-2-yl)quinazolin-4-amine], the “pENSA (%) Immunofluor ecense (1 µM)” value [1] was 65.3%, the activity at 1 µM ([2]; compound 1 µM) was 65.7% and the viability at 1 µM [3] was 71.7%. It also gave a viability at 1 µM [4] of 90.1%.
For `c1ccc(CN2CC3CC2CN3c2nc(Nc3cc(C4CC4)[nH]n3)c3ccccc3n2)cc1` (stereo not drawn) [compound 15g, 2-(5-benzyl-2,5-diazabicyclo[2.2.1]heptan-2-yl)-M-(5-cyclopropyl-1G-pyrazol-3-yl)quinazolin-4-amine], the “pENSA (%) Immunofluor ecense (1 µM)” value [1] was 65.6%, the IC50 [2] was 225 nM and the activity at 1 µM ([2]; compound 1 µM) was 27.9%. It also gave a viability at 1 µM [3] of 54.4% and a viability at 1 µM [4] of 42.9%.
With `O=S(=O)(c1cccc(Cl)c1)N1CC2CC1CN2c1nc(Nc2cc(C3CC3)[nH]n2)c2ccccc2n1` (stereo not drawn) [compound 15q, 2-(5-((3-chlorophenyl)sulfonyl)-2,5-diazabicyclo[2.2.1]heptan-2-yl)-M-(5-cyclopropyl-1G-pyrazol-3-yl)quinazolin-4-amine] the “pENSA (%) Immunofluor ecense (1 µM)” value [1] was 62.5%, the IC50 [2] was 545 nM and the activity at 1 µM ([2]; compound 1 µM) was 49.2%. The viability at 1.1 µM ([3]; read-out: Cell viability (%) WST-8, MCF7, footnote d: concentration 1.1 µM, 72 hours) was 106% and the viability at 1.1 µM [4] was 108%.
For `O=S(=O)(c1cccc(C(F)(F)F)c1)N1CC2CC1CN2c1nc(Nc2cc(C3CC3)[nH]n2)c2ccccc2n1` (stereo not drawn) [compound 15u, M-(5-cyclopropyl-1G-pyrazol-3-yl)-2-(5-((3-(trifluoromethyl)phenyl)sulfonyl)-2,5-diazabicyclo[2.2.1]heptan-2-yl)quinazolin-4-amine], the “pENSA (%) Immunofluor ecense (1 µM)” value [1] was 100%, the IC50 [2] was 269 nM and the activity at 1 µM ([2]; compound 1 µM) was 48.3%. The viability at 1 µM [3] was 107% and the viability at 1 µM [4] was 121%.
In the case of `Cc1ccc(S(=O)(=O)N2CC3CC2CN3c2nc(Nc3cc(C4CC4)[nH]n3)c3ccccc3n2)cc1F` (stereo not drawn) [compound 15w, M-(5-cyclopropyl-1G-pyrazol-3-yl)-2-(5-((3-fluoro-4-methylphenyl)sulfonyl)-2,5-diazabicyclo[2.2.1]heptan-2-yl)quinazolin-4-amine], the “pENSA (%) Immunofluor ecense (1 µM)” value [1] is reported as 86.2%, the activity at 1 µM ([2]; compound 1 µM) is reported as 64.1% and the viability at 1 µM [3] is reported as 93.5%. The viability at 1 µM [4] was 107%.
In the case of `CCCc1ccc(S(=O)(=O)N2CC3CC2CN3c2nc(Nc3cc(C4CC4)[nH]n3)c3ccccc3n2)cc1` (stereo not drawn) [compound 15x, M-(5-cyclopropyl-1G-pyrazol-3-yl)-2-(5-((4-propylphenyl)sulfonyl)-2,5-diazabicyclo[2.2.1]heptan-2-yl)quinazolin-4-amine], the “pENSA (%) Immunofluor ecense (1 µM)” value [1] is reported as 94.0%, the activity at 1 µM ([2]; compound 1 µM) is reported as 68.4% and the viability at 1 µM [3] is reported as 122%. It also gave a viability at 1 µM [4] of 98.3%.
For `O=S(=O)(c1cccc2cccnc12)N1CC2CC1CN2c1nc(Nc2cc(C3CC3)[nH]n2)c2ccccc2n1` (stereo not drawn) [compound 15z, M-(5-cyclopropyl-1G-pyrazol-3-yl)-2-(5-(quinolin-8-ylsulfonyl)-2,5-diazabicyclo[2.2.1]heptan-2-yl)quinazolin-4-amine], the “pENSA (%) Immunofluor ecense (1 µM)” value [1] was 102%, the activity at 1 µM ([2]; compound 1 µM) was 105% and the viability at 1 µM [3] was 110%. For the same compound, the viability at 1 µM [4] was 111%.
With `O=S(=O)(c1ccc(F)cc1F)N1CC2CCC1CN2c1nc(Nc2cc(C3CC3)[nH]n2)c2ccccc2n1` (stereo not drawn) [compound 24c, M-(5-cyclopropyl-1G-pyrazol-3-yl)-2-(5-((2,4-difluorophenyl)sulfonyl)-2,5-diazabicyclo[2.2.2]octan-2-yl)quinazolin-4-amine] the “pENSA (%) Immunofluor ecense (1 µM)” value [1] was 24.3%, the activity at 1 µM ([2]; compound 1 µM) was 16.6% and the viability at 1 µM [3] was 68.3%. The viability at 1 µM [4] was 10.8%.
In the case of `CN(C)S(=O)(=O)c1ccc(Nc2nc(Nc3ccc(CC#N)cc3)nc3ccccc23)cc1` [compound 25a, 4-((2-((4-(cyanomethyl)phenyl)amino)quinazolin-4-yl)amino)-M,M-dimethylbenzenesulfonamide], the “pENSA (%) Immunofluor ecense (1 µM)” value [1] is reported as 91.2%, the activity at 1 µM ([2]; compound 1 µM) is reported as 114% and the viability at 1 µM [3] is reported as 105%. The viability at 1 µM [4] was 71.6%.
For `CN(C)S(=O)(=O)c1ccc(Nc2nc(Nc3ccc(C#N)cc3)nc3ccccc23)cc1` [compound 25b, 4-((2-((4-cyanophenyl)amino)quinazolin-4-yl)amino)-M,M-dimethylbenzenesulfonamide], the “pENSA (%) Immunofluor ecense (1 µM)” value [1] was 102%, the activity at 1 µM ([2]; compound 1 µM) was 91.6% and the viability at 1 µM [3] was 86.4%. The viability at 1 µM [4] was 58.1%.
In the case of `CN(C)S(=O)(=O)c1ccc(Nc2nc(Nc3ccc(C(F)(F)F)cc3)nc3ccccc23)cc1` [compound 25c, M,M-dimethyl-4-((2-((4-(trifluoromethyl)phenyl)amino)quinazolin-4-yl)amino)benzenesulfonamide], the “pENSA (%) Immunofluor ecense (1 µM)” value [1] is reported as 96.5%, the activity at 1 µM [2] is reported as 108% and the viability at 1 µM [3] is reported as 86.4%. It also gave a viability at 1 µM [4] of 90%.
